In the NIST ThermoML archive (doi:10.1016/j.tca.2011.08.025):

Test: molar heat capacity at constant pressure
Conditions: 101.33 kPa, Crystal, Relaxation calorimetry

[Al] [aluminum]
Conditions	molar heat capacity at constant pressure [J/K/mol]
5.284 K	0.011
9.67 K	0.035
14.08 K	0.085
18.45 K	0.181
22.82 K	0.341
27.12 K	0.602
31.49 K	0.992
35.83 K	1.526
40.18 K	2.149
44.52 K	2.841
48.85 K	3.64
53.19 K	4.446
57.52 K	5.317
61.85 K	6.177
66.18 K	7.052
70.51 K	7.917
74.83 K	8.774
79.16 K	9.582
83.49 K	10.38
87.82 K	11.08
92.15 K	11.77
96.47 K	12.46
100.7 K	13.15
105.1 K	13.74
109.4 K	14.29
113.7 K	14.88
118 K	15.37
122.4 K	15.87
126.7 K	16.34
131 K	16.78
135.3 K	17.22
139.7 K	17.63
144 K	17.97
148.3 K	18.36
152.6 K	18.61
156.9 K	18.93
161.2 K	19.21
165.6 K	19.46
169.9 K	19.74
174.2 K	20.03
178.5 K	20.29
182.8 K	20.49
187.1 K	20.74
191.4 K	20.96
195.7 K	21.15
200.1 K	21.31
204.4 K	21.47
208.7 K	21.66
213 K	21.83
217.3 K	22.01
221.7 K	22.2
226 K	22.34
230.3 K	22.46
234.6 K	22.58
238.9 K	22.73
243.3 K	22.82
247.6 K	22.99
251.9 K	23.05
256.2 K	23.21
260.5 K	23.34
264.9 K	23.48
269.2 K	23.61
273.5 K	23.7
277.8 K	23.73
282.1 K	23.82
286.4 K	23.93
290.8 K	24.02
295.1 K	24.12
299.4 K	24.14
303.8 K	24.21

[Nd] [neodymium]
Conditions	molar heat capacity at constant pressure [J/K/mol]
2.151 K	0.8396
2.367 K	1.016
2.581 K	1.201
2.795 K	1.394
3.01 K	1.604
3.226 K	1.824
3.438 K	2.061
3.649 K	2.3
3.86 K	2.548
4.072 K	2.809
4.282 K	3.093
4.49 K	3.38
4.705 K	3.673
4.913 K	3.971
5.122 K	4.282
5.177 K	4.343
5.328 K	4.571
5.524 K	4.815
5.736 K	5.023
5.948 K	5.221
6.156 K	5.44
6.362 K	5.633
6.569 K	5.743
6.774 K	5.889
6.98 K	6.064
7.186 K	6.234
7.391 K	6.437
7.596 K	6.646
7.801 K	6.846
8.006 K	7.013
8.204 K	6.953
8.407 K	6.62
8.613 K	6.23
8.819 K	5.945
9.025 K	5.776
9.228 K	5.667
9.431 K	5.598
9.437 K	5.599
9.634 K	5.571
9.84 K	5.554
10.04 K	5.573
10.2 K	5.561
10.39 K	5.603
10.6 K	5.69
10.81 K	5.744
11.01 K	5.812
11.21 K	5.88
11.41 K	5.952
11.63 K	6.046
11.84 K	6.143
12.03 K	6.237
12.24 K	6.337
12.44 K	6.442
12.66 K	6.573
12.86 K	6.675
13.06 K	6.796
13.26 K	6.922
13.47 K	7.055
13.68 K	7.208
13.77 K	7.145
13.88 K	7.299
14.1 K	7.441
14.28 K	7.621
14.48 K	7.747
14.69 K	7.885
14.92 K	8.025
15.12 K	8.197
15.23 K	8.285
15.32 K	8.377
15.77 K	8.706
16.3 K	9.115
16.83 K	9.61
17.36 K	10.08
17.88 K	10.46
18.09 K	10.52
18.42 K	10.87
18.95 K	11.22
19.48 K	11.63
20.09 K	11.62
20.59 K	11.44
21.1 K	10.32
21.61 K	10.49
22.17 K	11.13
22.39 K	11.25
26.7 K	13.57
31.01 K	15.8
35.3 K	17.93
39.6 K	19.66
43.89 K	21.19
48.19 K	22.54
52.48 K	23.47
56.77 K	24.17
61.06 K	24.73
65.35 K	25.19
69.65 K	25.58
73.95 K	25.83
78.25 K	25.98
82.54 K	26.16
86.85 K	26.23
91.14 K	26.36
95.45 K	26.37
99.73 K	26.49
104 K	26.61
108.3 K	26.65
112.6 K	26.74
116.9 K	26.72
121.2 K	26.78
125.5 K	26.72
129.8 K	26.67
134 K	26.77
138.3 K	26.81
142.6 K	26.97
146.8 K	26.95
151.1 K	27.04
155.4 K	27.01
159.7 K	26.93
164 K	26.99
168.3 K	27.12
172.6 K	27.08
176.9 K	27.2
181.2 K	27.26
185.5 K	27.14
189.8 K	27.14
194.1 K	27.14
198.3 K	27.21
202.6 K	27.44
206.9 K	27.36
211.2 K	27.35
215.5 K	27.48
219.8 K	27.48
224.1 K	27.64
228.4 K	27.65
232.7 K	27.61
237 K	27.52
241.3 K	27.5
245.6 K	27.95
249.8 K	27.71
254.1 K	27.92
258.4 K	27.8
262.7 K	27.77
267 K	27.72
271.3 K	28.15
275.6 K	27.76
279.9 K	28.06
284.2 K	28.25
288.5 K	28.11
292.8 K	28.27
297.1 K	28.29
301.5 K	28.22
